The results in this text go back to patent US12421253B2 (Mirati Therapeutics, Inc., priority 2020, dated 2025).

The subject of one experiment is MKN1 cells, pERK. Description: Inhibition of KRas phosphorylation of ERK (Cisbio HTRF Advanced pERK assay). The format is cell-based. The conditions noted are these: Homo sapiens, MKN-1, 3 h, read-out: Inhibition (HTRF IC50 nM) of KRas-mediated Phosphorylation of ERK, MKN1. The method, boiled down:
(§1)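 Compound effect on ERK phosphorylation is measured after 3 h exposure of cells, seeded the previous day in RPMI with 10% FBS, to ten 3-fold dilutions starting at 10 uM. Lysates are probed by HTRF for pERK, with trametinib at 0.2 uM defining the minimum signal.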
(In general: In TR-FRET formats the signal depends on donor and acceptor labels being close together.)

A further experiment has as its system ASPC1 cells, pERK. The description is as above. The format is cell-based. The conditions noted are these: Homo sapiens, ASPC1, 3 h, AsPC-1 cells, read-out: Inhibition (HTRF IC50 nM) of KRas-mediated Phosphorylation of ERK, AsPC-1. The essentials: as §1
The next experiment relates to PSN1 cells, pERK. The experiment is described as above. The format is cell-based. As to conditions: Homo sapiens, PSN1, 3 h, read-out: Inhibition (HTRF IC50 nM) of KRas-mediated Phosphorylation of ERK, PSN1. The method, boiled down: as §1
The next experiment has as its system HCT116 cells, pERK. The description is as above. As to conditions: Homo sapiens, HCT-116, 3 hrs, read-out: Inhibition (HTRF IC50 nM) of KRas-mediated Phosphorylation of ERK, HCT116. The format is cell-based. The essentials:
as §1

In the next experiment the test system is H727 cells, pERK. Described as above. The conditions noted are these: Homo sapiens, NCI-H727, 3 h, read-out: Inhibition (HTRF IC50 nM) of KRas-mediated Phosphorylation of ERK, H727. The format is cell-based. The essentials: as §1
In a further experiment the target is T1, KRas^G12R (Homo sapiens, UniProt P01116, G12R).
T1 construct: […]; biotin (biotinylated); purchased Accelegan Inc
The experiment is described as follows: KRas binding assay (TR-FRET displacement of Cy5 labelled tracer).

The target of a further experiment is T2, KRas^G12V (Homo sapiens, UniProt P01116, G12V).
T2 construct: […]; biotin (biotinylated); purchased Accelegan Inc
Described as above.

For a further experiment, the target named is T3, KRas^G12D (Homo sapiens, UniProt P01116, G12D).
T3 construct: […]; biotin (biotinylated); purchased Accelegan Inc
The experiment is described as above.

Each structure is given as a SMILES string. A value given as a limit tells only on which side of the number the result lay.

T3 sequence (P01116 1-169 isoform P01116-2 G12D): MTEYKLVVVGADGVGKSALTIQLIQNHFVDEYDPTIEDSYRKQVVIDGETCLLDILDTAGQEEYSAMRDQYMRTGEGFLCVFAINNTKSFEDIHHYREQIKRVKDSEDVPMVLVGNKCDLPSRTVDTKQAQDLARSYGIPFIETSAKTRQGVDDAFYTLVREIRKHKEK
T1 sequence (P01116 1-169 isoform P01116-2 G12R): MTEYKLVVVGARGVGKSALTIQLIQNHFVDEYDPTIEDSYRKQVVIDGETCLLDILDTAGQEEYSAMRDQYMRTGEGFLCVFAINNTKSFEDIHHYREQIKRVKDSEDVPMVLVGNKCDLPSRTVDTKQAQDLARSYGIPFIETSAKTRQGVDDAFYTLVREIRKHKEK
T2 sequence (P01116 1-169 isoform P01116-2 G12V): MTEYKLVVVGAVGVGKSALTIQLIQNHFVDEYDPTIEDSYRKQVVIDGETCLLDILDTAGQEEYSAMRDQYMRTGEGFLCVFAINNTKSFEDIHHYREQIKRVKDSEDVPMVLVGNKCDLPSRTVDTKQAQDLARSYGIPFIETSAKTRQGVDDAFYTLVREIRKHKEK
Method for KRas^G12D: (§2) The ability of a compound to bind to KRas was measured using a TR-FRET displacement assay. […] After a 60-minute incubation at room temperature, the reaction was measured using a BMG LABTECH CLARIO star Plus via TR-FRET. […] The POC values were fit to a 4-parameter IC50 equation and the IC50 value reported.
Method for KRas^G12R: as §2
Method for KRas^G12V: as §2

The IC50 is the concentration that gives 50% inhibition. Turning to `CCc1c(F)ccc2cc(O)cc(N3CCc4c(nc(OC[C@@]56CCCN5C[C@H](F)C6)nc4N4CCOCC(CO)C4)C3)c12` (stereo partly drawn) [Example 65, 5-ethyl-6-fluoro-4-(2-(((2R,7aS)-2-fluorohexahydro-1H-pyrrolizin-7a-yl)methoxy)-4-(6-(hydroxymethyl)-1,4-oxazepan-4-yl)-5,6-dihydropyrido[3,4-d]pyrimidin-7(8H)-yl)naphthalen-2-ol], the concentration for half-maximal inhibition (IC50) with MKN1 cells, pERK is 26 nM; with ASPC1 cells, pERK it was 1290 nM; with PSN1 cells, pERK it was 4420 nM; in the experiment on HCT116 cells, pERK it was 1210 nM; with H727 cells, pERK it was 739 nM; on KRas^G12R it was not above 0.002 µM. In addition, the values for the IC50 on KRas^G12V and at KRas^G12D were not above 0.002 µM and 0.003 µM, respectively.
In the case of `CC1(O)COCCN(c2nc(OC[C@@]34CCCN3C[C@H](F)C4)nc3c2CCN(c2cc(O)cc4ccc(F)c(Cl)c24)C3)C1` (stereo partly drawn) [Example 74, 4-(7-(8-chloro-7-fluoro-3-hydroxynaphthalen-1-yl)-2-(((2R,7aS)-2-fluorohexahydro-1H-pyrrolizin-7a-yl)methoxy)-5,6,7,8-tetrahydropyrido[3,4-d]pyrimidin-4-yl)-6-methyl-1,4-oxazepan-6-ol], the half-inhibitory concentration (IC50) with MKN1 cells, pERK was 78 nM; in the experiment with ASPC1 cells, pERK, 253 nM; with PSN1 cells, pERK it was 4050 nM; in the experiment on HCT116 cells, pERK, 1450 nM; in the experiment on H727 cells, pERK it was 790 nM; on KRas^G12R, 0.004 µM. Besides, the values for the IC50 on KRas^G12V and at KRas^G12D were 0.003 µM and not above 0.002 µM, respectively.
`CCc1c(F)ccc2cc(O)cc(N3CCc4c(nc(OC[C@@]56CCCN5C[C@H](F)C6)nc4N4CCCC5(CNS(=O)(=O)N5)C4)C3)c12` (stereo partly drawn) [Example 61, 7-(7-(8-ethyl-7-fluoro-3-hydroxynaphthalen-1-yl)-2-(((2R,7aS)-2-fluorohexahydro-1H-pyrrolizin-7a-yl)methoxy)-5,6,7,8-tetrahydropyrido[3,4-d]pyrimidin-4-yl)-2-thia-1,3,7-triazaspiro[4.5]decane 2,2-dioxide]: the IC50 in the experiment on MKN1 cells, pERK came out at 51 nM; with ASPC1 cells, pERK, 211 nM; with PSN1 cells, pERK, 3650 nM; in the experiment with HCT116 cells, pERK, 2380 nM; in the experiment with H727 cells, pERK, 1200 nM; on KRas^G12R, 0.009 µM. For the same compound, the IC50 on KRas^G12V and at KRas^G12D was 0.004 µM in each case.
Take `CCc1c(F)ccc2cc(O)cc(N3CCc4c(nc(OC[C@@]56CCCN5C[C@H](F)C6)nc4N4CCCC5(CNC5=O)C4)C3)c12` (stereo partly drawn) [Example 64, 6-(7-(8-ethyl-7-fluoro-3-hydroxynaphthalen-1-yl)-2-(((2R,7aS)-2-fluorohexahydro-1H-pyrrolizin-7a-yl)methoxy)-5,6,7,8-tetrahydropyrido[3,4-d]pyrimidin-4-yl)-2,6-diazaspiro[3.5]nonan-1-one]: the IC50 is 83 nM with MKN1 cells, pERK; 595 nM with ASPC1 cells, pERK; 2630 nM with PSN1 cells, pERK; 891 nM in the experiment with HCT116 cells, pERK; 778 nM with H727 cells, pERK; not above 0.002 µM on KRas^G12R. Moreover, the IC50 on KRas^G12V and at KRas^G12D was not above 0.002 µM throughout.
In the case of `CCc1c(F)ccc2cc(O)cc(N3CCc4c(nc(OC[C@@]56CCCN5C[C@H](F)C6)nc4N4CC5CC(O)C(C5)C4)C3)c12` (stereo partly drawn) [Example 63, 3-(7-(8-ethyl-7-fluoro-3-hydroxynaphthalen-1-yl)-2-(((2R,7aS)-2-fluorohexahydro-1H-pyrrolizin-7a-yl)methoxy)-5,6,7,8-tetrahydropyrido[3,4-d]pyrimidin-4-yl)-3-azabicyclo[3.2.1]octan-6-ol], the half-maximal inhibitory concentration (IC50) is 33 nM with MKN1 cells, pERK; 457 nM in the experiment with ASPC1 cells, pERK; 6960 nM with PSN1 cells, pERK; 1170 nM in the experiment on HCT116 cells, pERK; 608 nM in the experiment with H727 cells, pERK; not above 0.002 µM on KRas^G12R. In addition, the IC50 was not above 0.002 µM on KRas^G12V and 0.008 µM on KRas^G12D.
With `CCc1c(F)ccc2cc(O)cc(N3CCc4c(nc(OC[C@@]56CCCN5C[C@H](F)C6)nc4N4CCCC5(CC(O)C5)C4)C3)c12` (stereo partly drawn) [Example 60, 6-(7-(8-ethyl-7-fluoro-3-hydroxynaphthalen-1-yl)-2-(((2R,7aS)-2-fluorohexahydro-1H-pyrrolizin-7a-yl)methoxy)-5,6,7,8-tetrahydropyrido[3,4-d]pyrimidin-4-yl)-6-azaspiro[3.5]nonan-2-ol], the IC50 is 29 nM with MKN1 cells, pERK; 556 nM with ASPC1 cells, pERK; 6610 nM with PSN1 cells, pERK; 1120 nM with HCT116 cells, pERK; 258 nM with H727 cells, pERK; not above 0.002 µM on KRas^G12R. Further, the IC50 on KRas^G12V and at KRas^G12D was not above 0.002 µM each time.
For the compound `Oc1cc(N2CCc3c(nc(OC[C@@]45CCCN4C[C@H](F)C5)nc3N3CC4CC(O)C(C4)C3)C2)c2c(Br)c(F)ccc2c1` (stereo partly drawn) [Example 215, 3-(7-(8-bromo-7-fluoro-3-hydroxynaphthalen-1-yl)-2-(((2R,7aS)-2-fluorohexahydro-1H-pyrrolizin-7a-yl)methoxy)-5,6,7,8-tetrahydropyrido[3,4-d]pyrimidin-4-yl)-3-azabicyclo[3.2.1]octan-6-ol], the IC50 in the experiment with MKN1 cells, pERK is 203 nM; with ASPC1 cells, pERK it was 1300 nM; with PSN1 cells, pERK it was 7580 nM; in the experiment with H727 cells, pERK, 957 nM; at KRas^G12R, 0.003 µM; at KRas^G12V, 0.003 µM. The IC50 at KRas^G12D was found to be 0.01 µM.
As for `Oc1cc(N2CCc3c(nc(OC[C@@]45CCCN4C[C@H](F)C5)nc3N3CCCC4(CC(O)C4)C3)C2)c2c(Cl)c(F)ccc2c1` (stereo partly drawn) [Example 71, 6-(7-(8-chloro-7-fluoro-3-hydroxynaphthalen-1-yl)-2-(((2R,7aS)-2-fluorohexahydro-1H-pyrrolizin-7a-yl)methoxy)-5,6,7,8-tetrahydropyrido[3,4-d]pyrimidin-4-yl)-6-azaspiro[3.5]nonan-2-ol], the IC50 in the experiment with MKN1 cells, pERK is 211 nM; with ASPC1 cells, pERK, 1170 nM; in the experiment with PSN1 cells, pERK, 6040 nM; in the experiment on H727 cells, pERK, 848 nM; at KRas^G12R, not above 0.002 µM; at KRas^G12V, not above 0.002 µM. Moreover, the half-maximal inhibitory concentration (IC50) on KRas^G12D turned out to be 0.004 µM.
For the compound `CCc1c(F)ccc2cc(O)cc(N3CCc4c(nc(OCC5(CN(C)C)CC5)nc4N4CCCC5(CNS(=O)(=O)N5)C4)C3)c12` (stereo not shown) [Example 202, 7-(2-((1-((dimethylamino)methyl)cyclopropyl)methoxy)-7-(8-ethyl-7-fluoro-3-hydroxynaphthalen-1-yl)-5,6,7,8-tetrahydropyrido[3,4-d]pyrimidin-4-yl)-2-thia-1,3,7-triazaspiro[4.5]decane 2,2-dioxide], the IC50 in the experiment on MKN1 cells, pERK was 101 nM; in the experiment on ASPC1 cells, pERK, 543 nM; with PSN1 cells, pERK, 3900 nM; in the experiment on H727 cells, pERK, 1350 nM; on KRas^G12R, 0.007 µM; on KRas^G12V, not above 0.002 µM. Also, at KRas^G12D, the IC50 was not above 0.002 µM.
Turning to `Oc1cc(N2CCc3c(nc(OC[C@@]45CCCN4C[C@H](F)C5)nc3N3CCCC4(CC(O)C4)C3)C2)c2c(Br)c(F)ccc2c1` (stereo partly drawn) [Example 224, 6-(7-(8-bromo-7-fluoro-3-hydroxynaphthalen-1-yl)-2-(((2R,7aS)-2-fluorohexahydro-1H-pyrrolizin-7a-yl)methoxy)-5,6,7,8-tetrahydropyrido[3,4-d]pyrimidin-4-yl)-6-azaspiro[3.5]nonan-2-ol], the IC50 with MKN1 cells, pERK was 62 nM; in the experiment with ASPC1 cells, pERK it was 976 nM; with PSN1 cells, pERK, not below 10000 nM; in the experiment on H727 cells, pERK it was 651 nM; on KRas^G12R, not above 0.002 µM; at KRas^G12V, not above 0.002 µM. Moreover, the 50% inhibitory concentration (IC50) on KRas^G12D is not above 0.002 µM.
